From patent publication US9730445B2, “Herbicidal compositions comprising 4-amino-3-chloro-5-fluoro-6-(4-chloro-2-fluoro-3-methoxyphenyl) pyridine-2-carboxylic acid or a derivative thereof and fungicides” (DOW AGROSCIENCES LLC, priority 2013, dated 2017)

Legend:
BRAPP = assay: Postemergence foliar-applied weed control, direct-seeded rice (greenhouse); assay type: in vivo
Description: (§1) Seeds or nutlets of the desired test plant species were planted in a soil matrix prepared by mixing aloam or sandy loam soil (e.g., 28.6 percent silt, 18.8 percent clay, and 52.6 percent sand, with a pH of about 5.8 and an organic matter content of about 1.8 percent) and calcareous grit in an 80 to 20 ratio. The soil matrix was contained in plastic pots with a volume of 1 quart and a surface area of 83.6 square centimeters (cm^2). When required to ensure good germination and healthy plants, a fungicide treatment and/or other chemical or physical treatment was applied. The plants were grown for 8-22 days in a greenhouse with an approximate 14 hour (h) photoperiod which was maintained at about 29° C. during the day and 26° C. during the night. Nutrients (Peters Excel® 15-5-15 5-Ca 2-Mg and iron chelate) were applied in the irrigation solution as needed and water was added on a regular basis. Supplemental lighting was provided with overhead metal halide 1000-Watt lamps as necessary. The plants were employed for testing when they reached the first through fourth true leaf stage.
(§2) Treatments consisted of the acid or esters of 4-amino-3-chloro-5-fluoro-6-(4-chloro-2-fluoro-3-methoxy-phenyl)pyridine-2-carboxylic acid (Compound A), each formulated as an SC (suspension concentrate), and various fungicidal components alone and in combination. Forms of compound A were applied on an acid equivalent basis.
(§3) Treatment requirements were calculated based upon the rates being tested, the concentration of active ingredient or acid equivalent in the formulation and a 12 milliliter (mL) application volume at a rate of 187 liters per hectare (L/ha).
(§4) For treatments comprised of formulated compounds, measured amounts of compounds were placed individually in 25 mL glass vials and diluted in a volume of 1.25% volume per volume (v/v) Agri-Dex® crop oil concentrate to obtain 12× stock solutions. […] Application solutions were prepared by adding an appropriate amount of each stock solution (e.g., 1 mL) and diluted to the appropriate final concentrations with the addition of […] of an aqueous mixture of 1.25% (v/v) crop oil concentrate so that the final spray solutions contained 1.25+/−0.05% (v/v) crop oil concentrate.
(§5) For treatments comprised of technical compounds, weighed amounts can be placed individually in 25 mL glass vials and dissolved in a volume of 97:3 volume per volume (v/v) acetone/dimethyl sulfoxide (DMSO) to obtain 12× stock solutions. […] When technical materials are used, the concentrated stock solutions can be added to the spray solutions so that the final acetone and DMSO concentrations of the application solutions are 16.2% and 0.5%, respectively.
(§6) As required, additional water and/or 97:3 v/v acetone/DMSO was added to individual application solutions so that the final acetone and DMSO concentrations of the application solutions being compared were 8.1% and 0.25%, respectively
(§7) All stock solutions and applications solutions were visually inspected for compound compatibility prior to application. Spray solutions were applied to the plant material with an overhead Mandel track sprayer equipped with 8002E nozzles calibrated to deliver 187 L/ha over an application area of 0.503 square meters (m^2) at a spray height of 18 to 20 inches (46 to 50 cm) above average plant canopy height. Control plants were sprayed in the same manner with the solvent blank.
(§8) The treated plants and control plants were placed in a greenhouse as described above and watered by sub-irrigation to prevent wash-off of the test compounds. After approximately 3 weeks, the condition of the test plants as compared with that of the untreated plants was determined visually and scored on a scale of 0 to 100 percent where 0 corresponds to no injury or growth inhibition and 100 corresponds to complete kill. […]

CYPIR = assay: as above; assay type: in vivo, Cyperus iria L. (rice flatsedge); conditions: 21 DAA
Description: as §1, with “When required to ensure good germination and healthy plants, a fungicide treatment and/or other chemical or physical treatment was applied.” left out
as §2, §4, §5, §6, §7
(§9) The treated plants and control plants were placed in a greenhouse as described above and watered by sub-irrigation to prevent wash-off of the test compounds. After approximately 3 weeks, the condition of the test plants as compared with that of the untreated plants was determined visually and scored on a scale of 0 to 100 percent where 0 corresponds to no injury or growth inhibition and 100 corresponds to complete kill.
(§10) Colby's equation was used to determine the herbicidal effects expected from the mixtures (Colby, S. R. Calculation of the synergistic and antagonistic response of herbicide combinations. Weeds 1967, 15, 20-22.).
(§11) The following equation was used to calculate the expected activity of mixtures containing two active ingredients, A and B: Expected=A+B−(A×B/100)

ECHCG = assay: as above; assay type: in vivo, Echinochloa crus-galli (L.) P. Beauv. (barnyardgrass)
Description: as §1, with “When required to ensure good germination and healthy plants, a fungicide treatment and/or other chemical or physical treatment was applied.” left out
as §2, §4, §5, §6, §7, §9, §10, §11

ECHCO = assay: as above; assay type: in vivo, Echinochloa colonum (L.) LINK (junglerice); conditions: 21 DAA
Description: as §1, §2, §3, §4, §5, §6, §7, §8

IPOHE = assay: as above; assay type: in vivo, Ipomoea hederacea (L.) Jacq. (ivyleaf morningglory); conditions: r29-30 ester 8/16 g ae/ha alone, r31-33 hexaconazole 25/50/100 g ai/ha alone, r34-39 ester 8/16 at each of 25, 50, 100
Description: as §1, with “When required to ensure good germination and healthy plants, a fungicide treatment and/or other chemical or physical treatment was applied.” left out
as §2, §4, §5, §6, §7, §9, §10, §11

LEFCH [1] = assay: as above; assay type: in vivo, Leptochloa chinensis (L.) Nees (Chinese sprangletop); conditions: 21 DAA
Description: as §1, with “When required to ensure good germination and healthy plants, a fungicide treatment and/or other chemical or physical treatment was applied.” left out
as §2, §4, §5, §6, §7, §9, §10, §11

CYPES = assay: as above; assay type: in vivo, Cyperus esculentus L. (yellow nutsedge)
Description: as §1, with “When required to ensure good germination and healthy plants, a fungicide treatment and/or other chemical or physical treatment was applied.” left out
as §2, §4, §5, §6, §7, §8

DIGSA = assay: as above; assay type: in vivo, Digitaria sanguinalis (L.) Scop. (large crabgrass)
Description: as §1, §2, §3, §4, §5, §6, §7, §8

CYPRO = assay: In-water applied weed control, transplanted paddy rice (greenhouse); assay type: in vivo, Cyperus rotundus L. (purple nutsedge)
Description: (§12) Weed seeds or nutlets of the desired test plant species were planted in puddled soil (mud) prepared by mixing a shredded, non-sterilized mineral soil (50.5 percent silt, 25.5 percent clay, and 24 percent sand, with a pH of about 7.6 and an organic matter content of about 2.9 percent) and water at a 1:1 volumetric ratio. The prepared mud was dispensed in 365 mL aliquots into 16-ounce (oz.) non-perforated plastic pots with a surface area of 86.59 square centimeters (cm^2) leaving a headspace of 3 centimeters (cm) in each pot. Rice seeds were planted in Sun Gro MetroMix® 306 planting mixture, which typically has a pH of 6.0 to 6.8 and an organic matter content of about 30 percent, in plastic plug trays. Seedlings at the second or third leaf stage of growth were transplanted into 860 mL of mud contained in 32-oz. non-perforated plastic pots with a surface area of 86.59 cm^2 4 days prior to herbicide application. The paddy was created by filling the headspace of the pots with 2.5 to 3 cm of water. When required to ensure good germination and healthy plants, a fungicide treatment and/or other chemical or physical treatment was applied. The plants were grown for 4-22 days in a greenhouse with an approximate 14 hour (h) photoperiod which was maintained at about 29° C. during the day and about 26° C. during the night. Nutrients were added as Osmocote® (17:6:10, N:P:K+minor nutrients) at 2 g per cup. Water was added on a regular basis to maintain the paddy flood, and supplemental lighting was provided with overhead metal halide 1000-Watt lamps as necessary. The plants were employed for testing when they reached the first through fourth true leaf stage.
as §2, with “(compound A)” for “(Compound A),”, “concentrate)” for “concentrate),”
(§13) Treatment requirements for each compound or fungicidal component were calculated based upon the rates being tested, the concentration of active ingredient or acid equivalent in the formulation, an application volume of 2 mL per component per pot, and an application area of 86.59 cm^2 per pot.
For formulated compounds, a measured amount was placed in an individual 100 or 200 mL glass vial and was dissolved in a volume of 1.25% (v/v) Agri-Dex® crop oil concentrate to obtain application solutions.
For technical grade compounds, a weighed amount was placed in an individual 100 to 200 mL glass vial and dissolved in a volume of acetone to obtain concentrated stock solutions.
Applications were made by injecting with a pipetter appropriate amounts of the application solutions, individually and sequentially, into the aqueous layer of the paddy. Control plants were treated in the same manner with the solvent blank. Applications were made so that all treated plant material received the same concentrations of acetone and crop oil concentrate.
as §9, with “water was added as needed” for “watered by sub-irrigation”, “maintain a paddy flood.” for “prevent wash-off of the test compounds.”, “weeks” for “weeks,”
as §10, §11

FIMMI = assay: as above; assay type: in vivo, Fimbristylis miliacea (L.) Vahl (globe fringerush); conditions: Tricyclazole 200 g ai/ha
Description: as §12, with “stage. […]” for “stage.”
as §13
(§14) For formulated compounds, a measured amount was placed in an individual 100 or 200 mL glass vial and was dissolved in a volume of 1.25% (v/v) Agri-Dex® crop oil concentrate to obtain application solutions. […]
as §8, with “water was added as needed” for “watered by sub-irrigation”, “maintain a paddy flood.” for “prevent wash-off of the test compounds.”, “weeks” for “weeks,”

LEFCH [2] = assay: as above; assay type: in vivo, Leptochloa chinensis (L.) Nees (Chinese sprangletop)
Description: as §12, with “stage. […]” for “stage.”
as §13, §14
as §8, with “water was added as needed” for “watered by sub-irrigation”, “maintain a paddy flood.” for “prevent wash-off of the test compounds.”, “weeks” for “weeks,”

[3] = r9-11 ester 8/16/32 g ae/ha alone, r12-14 hexaconazole 25/50/100 g ai/ha alone, r15-23 ester 8/16/32 at each of 25, 50, 100
[4] = r10-12 ester 8/16/32 g ae/ha alone, r13-14 isoprothiolane 266/533 g ai/ha alone, r15-20 ester 8/16/32 at each of 266, 533
[5] = r38-39 ester 8/16 g ae/ha alone, r40 isotianil 380 g ai/ha alone, r41-42 ester 8/16 + 380

CCCCC(O)(Cn1cncn1)c1ccc(Cl)cc1Cl (racemic) [Hexaconazole, reference compound]
0%: Visual Weed Control (%)—21 DAA BRAPP Obs (BRAPP; r29-30 ester 8/16 g ae/ha alone, r31-33 hexaconazole 25/50/100 g ai/ha alone, r34-39 ester 8/16 at each of 25, 50, 100) | Visual Weed Control (%)—21 DAA CYPIR Obs (CYPIR; r45 ester 8 g ae/ha alone, r46-48 hexaconazole 25/50/100 g ai/ha alone, r49-51 ester 8 + 25/50/100) | Visual Weed Control (%)—21 DAA ECHCG Obs (ECHCG; [3]) | Visual Weed Control (%)—21 DAA ECHCO Obs (ECHCO; [3]) | Visual Weed Control (%)—21 DAA IPOHE Obs (IPOHE) | Visual Weed Control (%)—21 DAA LEFCH Obs (LEFCH [1]; [3])

CC(C)OC(=O)C(C(=O)OC(C)C)=C1SCCS1 [Isoprothiolane, diisopropyl 1,3-dithiolan-2-ylidenemalonate, reference compound]
0%: Visual Weed Control (%) - 21 DAA CYPES Obs (CYPES; [4]) | Visual Weed Control (%) - 21 DAA CYPIR Obs (CYPIR; r26-27 ester 16/32 g ae/ha alone, r28-29 isoprothiolane 266/533 g ai/ha alone, r30-33 ester 16/32 at each of 266, 533) | Visual Weed Control (%) - 21 DAA LEFCH Obs (LEFCH [1]; [4])

N#Cc1ccccc1NC(=O)c1snc(Cl)c1Cl [Isotianil, 3,4-dichloro-2′-cyano-1,2-thiazole-5-carboxanilide, reference compound]
0%: Visual Weed Control (%)—20 DAA BRAPP Obs (BRAPP; 20 DAA, r9-11 ester 8/16/32 g ae/ha alone, r12 isotianil 200 g ai/ha alone, r13-15 ester 8/16/32 + 200) | Visual Weed Control (%)—21 DAA BRAPP Obs (BRAPP; [5]) | Visual Weed Control (%)—20 DAA DIGSA Obs (DIGSA; 20 DAA, r21-23 ester 8/16/32 g ae/ha alone, r24-25 isotianil 100/200 g ai/ha alone, r26-31 ester 8/16/32 at each of 100, 200) | Visual Weed Control (%)—21 DAA DIGSA Obs (DIGSA; 21 DAA, r38-39 ester 8/16 g ae/ha alone, r40 isotianil 380 g ai/ha alone, r41-42 ester 8/16 + 380) | Visual Weed Control (%)—21 DAA ECHCG Obs (ECHCG; [5]) | Visual Weed Control (%)—21 DAA ECHCO Obs (ECHCO; [5]) | Visual Weed Control (%)—21 DAA LEFCH Obs (LEFCH [1]; [5])

O=C1CCc2cccc3c2N1CC3 [Pyroquilon, 1,2,5,6-tetrahydropyrrolo[3,2,1-ij]quinolin-4-one, reference compound]
0%: Visual Weed Control (%) - 21 DAA CYPES Obs (CYPES; r11-12 ester 8/16 g ae/ha alone, r13 pyroquilon 925 g ai/ha alone, r14-15 ester 8/16 + 925) | Visual Weed Control (%) - 21 DAA CYPIR Obs (CYPIR; r23-24 ester 16/32 g ae/ha alone, r25 pyroquilon 925 g ai/ha alone, r26-27 ester 16/32 + 925)

Cc1cccc2sc3nncn3c12 [Tricyclazole, 5-methyl-1,2,4-triazolo[3,4-b][1,3]benzothiazole, reference compound]
0%: Visual Weed Control (%) - 22 DAA CYPRO Obs (CYPRO; Tricyclazole 200 g ai/ha, 22 DAA) | Visual Weed Control (%) - 19 DAA CYPRO Obs (CYPRO; Tricyclazole 375 g ai/ha) | Visual Weed Control (%) - 19 DAA CYPRO Obs (CYPRO; Tricyclazole 750 g ai/ha) | Visual Weed Control (%) - 22 DAA FIMMI Obs (FIMMI) | Visual Weed Control (%) - 19 DAA LEFCH Obs (LEFCH [2]; Tricyclazole 187.5 g ai/ha) | Visual Weed Control (%) - 19 DAA LEFCH Obs (LEFCH [2]; Tricyclazole 750 g ai/ha)
